Reference: article PMC10006169, “A phase I trial of LXS196, a protein kinase C (PKC) inhibitor, for metastatic uveal melanoma” (British Journal of Cancer, 2023)

Tested on: patients with MUM
Assay: Adverse events suspected to be study drug related (NCI-CTCAE v4.03)
Type: in vivo, human
Method: Routine safety assessments, including laboratory assessments, physical examinations, vital signs and electrocardiograms (ECGs), were conducted at regular intervals throughout the study and more frequently as needed following patient assessment by the treating physician. Adverse events (AEs) were assessed continuously according to the National Cancer Institute Common Terminology Criteria for Adverse Events (NCI-CTCAE) v4.03.

Q: What does the source list for `CC1(N)CCN(c2cccnc2NC(=O)c2nc(-c3ncccc3C(F)(F)F)cnc2N)CC1` [LXS196]?
A: ALT increased, all grades (100 mg QD): 0 n (%); ALT increased, grade ≥3 (100 mg QD): 0 n (%); AST increased, all grades (100 mg QD): 0 n (%); AST increased, grade ≥3 (100 mg QD): 0 n (%); Asthenia, all grades (100 mg QD): 0 n (%); Asthenia, grade ≥3 (100 mg QD): 0 n (%); Blood creatinine increased, all grades (100 mg QD): 0 n (%); Blood creatinine increased, grade ≥3 (100 mg QD): 0 n (%); Constipation, all grades (100 mg QD): 1 (33.3) n (%); Constipation, grade ≥3 (100 mg QD): 0 n (%); Diarrhoea, all grades (100 mg QD): 1 (33.3) n (%); Diarrhoea, grade ≥3 (100 mg QD): 0 n (%); Dry skin, all grades (100 mg QD): 0 n (%); Dry skin, grade ≥3 (100 mg QD): 0 n (%); Fatigue, all grades (100 mg QD): 0 n (%); Fatigue, grade ≥3 (100 mg QD): 0 n (%); Hypotension, all grades (100 mg QD): 0 n (%); Hypotension, grade ≥3 (100 mg QD): 0 n (%); Nausea, all grades (100 mg QD): 2 (66.7) n (%); Nausea, grade ≥3 (100 mg QD): 0 n (%); Patients with ≥1 AE, all grades (100 mg QD): 2 (66.7) n (%); Patients with ≥1 AE, grade ≥3 (100 mg QD): 0 n (%); Rash, all grades (100 mg QD): 0 n (%); Rash, grade ≥3 (100 mg QD): 0 n (%); Vomiting, all grades (100 mg QD): 0 n (%); Vomiting, grade ≥3 (100 mg QD): 0 n (%); ALT increased, all grades (200 mg QD): 0 n (%); ALT increased, grade ≥3 (200 mg QD): 0 n (%); AST increased, all grades (200 mg QD): 0 n (%); AST increased, grade ≥3 (200 mg QD): 0 n (%); Asthenia, all grades (200 mg QD): 1 (25.0) n (%); Asthenia, grade ≥3 (200 mg QD): 0 n (%); Blood creatinine increased, all grades (200 mg QD): 1 (25.0) n (%); Blood creatinine increased, grade ≥3 (200 mg QD): 0 n (%); Constipation, all grades (200 mg QD): 2 (50.0) n (%); Constipation, grade ≥3 (200 mg QD): 0 n (%); Diarrhoea, all grades (200 mg QD): 1 (25.0) n (%); Diarrhoea, grade ≥3 (200 mg QD): 0 n (%); Dry skin, all grades (200 mg QD): 0 n (%); Dry skin, grade ≥3 (200 mg QD): 0 n (%); Fatigue, all grades (200 mg QD): 0 n (%); Fatigue, grade ≥3 (200 mg QD): 0 n (%); Hypotension, all grades (200 mg QD): 0 n (%); Hypotension, grade ≥3 (200 mg QD): 0 n (%); Nausea, all grades (200 mg QD): 2 (50.0) n (%); Nausea, grade ≥3 (200 mg QD): 1 (25.0) n (%); Patients with ≥1 AE, all grades (200 mg QD): 4 (100) n (%); Patients with ≥1 AE, grade ≥3 (200 mg QD): 2 (50.0) n (%); Rash, all grades (200 mg QD): 0 n (%); Rash, grade ≥3 (200 mg QD): 0 n (%); Vomiting, all grades (200 mg QD): 2 (50.0) n (%); Vomiting, grade ≥3 (200 mg QD): 1 (25.0) n (%); ALT increased, all grades (300 mg BID (RDE)): 5 (27.8) n (%); ALT increased, grade ≥3 (300 mg BID (RDE)): 1 (5.6) n (%); AST increased, all grades (300 mg BID (RDE)): 3 (16.7) n (%); AST increased, grade ≥3 (300 mg BID (RDE)): 1 (5.6) n (%); Asthenia, all grades (300 mg BID (RDE)): 4 (22.2) n (%); Asthenia, grade ≥3 (300 mg BID (RDE)): 0 n (%); Blood creatinine increased, all grades (300 mg BID (RDE)): 2 (11.1) n (%); Blood creatinine increased, grade ≥3 (300 mg BID (RDE)): 0 n (%); Constipation, all grades (300 mg BID (RDE)): 1 (5.6) n (%); Constipation, grade ≥3 (300 mg BID (RDE)): 0 n (%); Diarrhoea, all grades (300 mg BID (RDE)): 11 (61.1) n (%); Diarrhoea, grade ≥3 (300 mg BID (RDE)): 1 (5.6) n (%); Dry skin, all grades (300 mg BID (RDE)): 4 (22.2) n (%); Dry skin, grade ≥3 (300 mg BID (RDE)): 0 n (%); Fatigue, all grades (300 mg BID (RDE)): 3 (16.7) n (%); Fatigue, grade ≥3 (300 mg BID (RDE)): 0 n (%); Hypotension, all grades (300 mg BID (RDE)): 3 (16.7) n (%); Hypotension, grade ≥3 (300 mg BID (RDE)): 0 n (%); Nausea, all grades (300 mg BID (RDE)): 14 (77.8) n (%); Nausea, grade ≥3 (300 mg BID (RDE)): 0 n (%); Patients with ≥1 AE, all grades (300 mg BID (RDE)): 17 (94.4) n (%); Patients with ≥1 AE, grade ≥3 (300 mg BID (RDE)): 2 (11.1) n (%); Rash, all grades (300 mg BID (RDE)): 4 (22.2) n (%); Rash, grade ≥3 (300 mg BID (RDE)): 0 n (%); Vomiting, all grades (300 mg BID (RDE)): 7 (38.9) n (%); Vomiting, grade ≥3 (300 mg BID (RDE)): 0 n (%); ALT increased, all grades (300 mg QD): 3 (20.0) n (%); ALT increased, grade ≥3 (300 mg QD): 1 (6.7) n (%); AST increased, all grades (300 mg QD): 1 (6.7) n (%); AST increased, grade ≥3 (300 mg QD): 1 (6.7) n (%); Asthenia, all grades (300 mg QD): 3 (20.0) n (%); Asthenia, grade ≥3 (300 mg QD): 0 n (%); Blood creatinine increased, all grades (300 mg QD): 1 (6.7) n (%); Blood creatinine increased, grade ≥3 (300 mg QD): 0 n (%); Constipation, all grades (300 mg QD): 1 (6.7) n (%); Constipation, grade ≥3 (300 mg QD): 0 n (%); Diarrhoea, all grades (300 mg QD): 4 (26.7) n (%); Diarrhoea, grade ≥3 (300 mg QD): 0 n (%); Dry skin, all grades (300 mg QD): 1 (6.7) n (%); Dry skin, grade ≥3 (300 mg QD): 0 n (%); Fatigue, all grades (300 mg QD): 7 (46.7) n (%); Fatigue, grade ≥3 (300 mg QD): 0 n (%); Hypotension, all grades (300 mg QD): 1 (6.7) n (%); Hypotension, grade ≥3 (300 mg QD): 0 n (%); Nausea, all grades (300 mg QD): 9 (60.0) n (%); Nausea, grade ≥3 (300 mg QD): 0 n (%); Patients with ≥1 AE, all grades (300 mg QD): 14 (93.3) n (%); Patients with ≥1 AE, grade ≥3 (300 mg QD): 2 (13.3) n (%); Rash, all grades (300 mg QD): 3 (20.0) n (%); Rash, grade ≥3 (300 mg QD): 0 n (%); Vomiting, all grades (300 mg QD): 5 (33.3) n (%); Vomiting, grade ≥3 (300 mg QD): 0 n (%); ALT increased, all grades (500 mg QD): 3 (27.3) n (%); ALT increased, grade ≥3 (500 mg QD): 1 (9.1) n (%); AST increased, all grades (500 mg QD): 4 (36.4) n (%); AST increased, grade ≥3 (500 mg QD): 1 (9.1) n (%); Asthenia, all grades (500 mg QD): 2 (18.2) n (%); Asthenia, grade ≥3 (500 mg QD): 0 n (%); Blood creatinine increased, all grades (500 mg QD): 0 n (%); Blood creatinine increased, grade ≥3 (500 mg QD): 0 n (%); Constipation, all grades (500 mg QD): 0 n (%); Constipation, grade ≥3 (500 mg QD): 0 n (%); Diarrhoea, all grades (500 mg QD): 4 (36.4) n (%); Diarrhoea, grade ≥3 (500 mg QD): 0 n (%); Dry skin, all grades (500 mg QD): 0 n (%); Dry skin, grade ≥3 (500 mg QD): 0 n (%); Fatigue, all grades (500 mg QD): 0 n (%); Fatigue, grade ≥3 (500 mg QD): 0 n (%); Hypotension, all grades (500 mg QD): 4 (36.4) n (%); Hypotension, grade ≥3 (500 mg QD): 3 (27.3) n (%); Nausea, all grades (500 mg QD): 8 (72.7) n (%); Nausea, grade ≥3 (500 mg QD): 0 n (%); Patients with ≥1 AE, all grades (500 mg QD): 10 (90.9) n (%); Patients with ≥1 AE, grade ≥3 (500 mg QD): 4 (36.4) n (%); Rash, all grades (500 mg QD): 0 n (%); Rash, grade ≥3 (500 mg QD): 0 n (%); Vomiting, all grades (500 mg QD): 5 (45.5) n (%); Vomiting, grade ≥3 (500 mg QD): 0 n (%); ALT increased, all grades (800 mg QD): 0 n (%); ALT increased, grade ≥3 (800 mg QD): 0 n (%); AST increased, all grades (800 mg QD): 0 n (%); AST increased, grade ≥3 (800 mg QD): 0 n (%); Asthenia, all grades (800 mg QD): 0 n (%); Asthenia, grade ≥3 (800 mg QD): 0 n (%); Blood creatinine increased, all grades (800 mg QD): 0 n (%); Blood creatinine increased, grade ≥3 (800 mg QD): 0 n (%); Constipation, all grades (800 mg QD): 0 n (%); Constipation, grade ≥3 (800 mg QD): 0 n (%); Diarrhoea, all grades (800 mg QD): 1 (100) n (%); Diarrhoea, grade ≥3 (800 mg QD): 0 n (%); Dry skin, all grades (800 mg QD): 0 n (%); Dry skin, grade ≥3 (800 mg QD): 0 n (%); Fatigue, all grades (800 mg QD): 0 n (%); Fatigue, grade ≥3 (800 mg QD): 0 n (%); Hypotension, all grades (800 mg QD): 1 (100) n (%); Hypotension, grade ≥3 (800 mg QD): 1 (100) n (%); Nausea, all grades (800 mg QD): 1 (100) n (%); Nausea, grade ≥3 (800 mg QD): 0 n (%); Patients with ≥1 AE, all grades (800 mg QD): 1 (100) n (%); Patients with ≥1 AE, grade ≥3 (800 mg QD): 1 (100) n (%); Rash, all grades (800 mg QD): 0 n (%); Rash, grade ≥3 (800 mg QD): 0 n (%); Vomiting, all grades (800 mg QD): 0 n (%); Vomiting, grade ≥3 (800 mg QD): 0 n (%); ALT increased, all grades (1000 mg QD): 1 (25.0) n (%); ALT increased, grade ≥3 (1000 mg QD): 0 n (%); AST increased, all grades (1000 mg QD): 0 n (%); AST increased, grade ≥3 (1000 mg QD): 0 n (%); Asthenia, all grades (1000 mg QD): 0 n (%); Asthenia, grade ≥3 (1000 mg QD): 0 n (%); Blood creatinine increased, all grades (1000 mg QD): 0 n (%); Blood creatinine increased, grade ≥3 (1000 mg QD): 0 n (%); Constipation, all grades (1000 mg QD): 0 n (%); Constipation, grade ≥3 (1000 mg QD): 0 n (%); Diarrhoea, all grades (1000 mg QD): 4 (100) n (%); Diarrhoea, grade ≥3 (1000 mg QD): 0 n (%); Dry skin, all grades (1000 mg QD): 1 (25.0) n (%); Dry skin, grade ≥3 (1000 mg QD): 0 n (%); Fatigue, all grades (1000 mg QD): 3 (75.0) n (%); Fatigue, grade ≥3 (1000 mg QD): 0 n (%); Hypotension, all grades (1000 mg QD): 2 (50.0) n (%); Hypotension, grade ≥3 (1000 mg QD): 1 (25.0) n (%); Nausea, all grades (1000 mg QD): 4 (100) n (%); Nausea, grade ≥3 (1000 mg QD): 0 n (%); Patients with ≥1 AE, all grades (1000 mg QD): 4 (100) n (%); Patients with ≥1 AE, grade ≥3 (1000 mg QD): 2 (50.0) n (%); Rash, all grades (1000 mg QD): 0 n (%); Rash, grade ≥3 (1000 mg QD): 0 n (%); Vomiting, all grades (1000 mg QD): 0 n (%); Vomiting, grade ≥3 (1000 mg QD): 0 n (%); ALT increased, all grades (All BID): 8 (26.7) n (%); ALT increased, grade ≥3 (All BID): 2 (6.7) n (%); AST increased, all grades (All BID): 6 (20.0) n (%); AST increased, grade ≥3 (All BID): 2 (6.7) n (%); Asthenia, all grades (All BID): 7 (23.3) n (%); Asthenia, grade ≥3 (All BID): 0 n (%); Blood creatinine increased, all grades (All BID): 5 (16.7) n (%); Blood creatinine increased, grade ≥3 (All BID): 0 n (%); Constipation, all grades (All BID): 3 (10.0) n (%); Constipation, grade ≥3 (All BID): 0 n (%); Diarrhoea, all grades (All BID): 16 (53.3) n (%); Diarrhoea, grade ≥3 (All BID): 1 (3.3) n (%)
